The values that follow come from patent US9890175B2, “Taxane compound, and preparation method and use thereof” (JIANGSU TASLY DIYI PHARMACEUTICAL CO., LTD., priority 2013, dated 2018).

Data set [1] has as its system Hela cervical cancer. Kind of data set: MTT proliferation inhibition, HeLa. In kind it is cell-based. To be noted: Homo sapiens, read-out: Proliferation inhibition rate, HeLa Uterin cancer. The source says:
(§1) 1. Cytotoxicity Assay Using Human Tumor Cell Lines
(§2) Paclitaxel was used as the positive drug.

Data set [2] relates to MCF-7 breast cancer cells. Kind of data set: MTT proliferation inhibition, MCF-7. The data set is classed as cell-based. The following applies: Homo sapiens, MCF7, read-out: Proliferation inhibition rate, MCF-7 Breast cancer.
Source text: as §1, §2

The test system of data set [3] is NCI-H460 non-small cell lung cancer. Kind of data set: MTT proliferation inhibition, NCI-H460. To be noted: Homo sapiens, NCI-H460, read-out: Proliferation inhibition rate, NCI-H460 Non-small cell lung cancer. In kind it is cell-based.
Source text: as §1, §2

In data set [4] the test system is A375 melanoma. Kind of data set: MTT proliferation inhibition, A375. In kind it is cell-based. To be noted: Homo sapiens, A-375, read-out: Proliferation inhibition rate, A375 Melanoma.
Source text: as §1, §2

Data set [5] relates to HT-29 colon cancer. Kind of data set: MTT proliferation inhibition, HT-29. The data set is classed as cell-based. To be noted: Homo sapiens, HT-29, read-out: Proliferation inhibition rate, HT29 Colon cancer.
Source text: as §1, §2

Data set [6] has as its system HL-60 leukemia. Kind of data set: MTT proliferation inhibition, HL-60. To be noted: Homo sapiens, HL-60, read-out: Proliferation inhibition rate, HL60 Leukemia. The data set is classed as cell-based.
Source text: as §1, §2

Data set [7] concerns Du145 prostate cancer. The data set can be described thus: MTT proliferation inhibition, Du145. To be noted: Homo sapiens, DU-145, read-out: Proliferation inhibition rate, DU145 Prostate cancer. In kind it is cell-based.
Source text: as §1, §2

Data set [8] deals with MDA-MB-436 breast cancer cells. Kind of data set: MTT proliferation inhibition, MDA-MB-436. The following applies: Homo sapiens, MDA-MB-436, read-out: Proliferation inhibition rate, MDA-MB-436 Breast cancer. The data set is classed as cell-based.
Source text: as §1, §2

The subject of data set [9] is LN-18. The data set can be described thus: MTT proliferation inhibition, LN-18. The data set is classed as cell-based. To be noted: Homo sapiens, LN-18, read-out: Proliferation inhibition rate, LN-18 Gastric canser.
Source text: as §1, §2

The test system of data set [10] is BGC-823 gastric cancer. Kind of data set: MTT proliferation inhibition, BGC-823. The following applies: Homo sapiens, BGC-823, read-out: Proliferation inhibition rate, BGC-823 Gastric cancer. In kind it is cell-based.
Source text: as §1, §2

The test system of data set [11] is A549 non-small cell lung cancer. The data set can be described thus: MTT proliferation inhibition, A549. In kind it is cell-based. To be noted: Homo sapiens, A549, read-out: Proliferation inhibition rate, A549 Non-small cell lung cancer.
Source text: as §1, §2

For data set [12], the system named is B16 melanoma. Kind of data set: MTT proliferation inhibition, B16. To be noted: B16, read-out: Proliferation inhibition rate, B16 Melanoma. The data set is classed as cell-based.
Source text: as §1, §2

Data set [13] has as its system K562 leukemia. The data set can be described thus: MTT proliferation inhibition, K562. In kind it is cell-based. To be noted: Homo sapiens, K562, read-out: Proliferation inhibition rate, K562 Leukemia.
Source text: as §1, §2

In data set [14] the test system is breast cancer cell line MCF-7. The data set can be described thus: IC50 on breast cancer cell line MCF-7. The data set is classed as cell-based. The following applies: Homo sapiens, MCF7, 72 h, read-out: MCF-7 (IC50, nM).
Data set [15] can be described thus: Caco-2 cell monolayer membrane transport assay (Papp and recovery). The data set is classed as in vitro ADME. To be noted: human, Caco-2, Caco-2, A-B.
Source text: Caco-2 Cell Monolayer Membrane Transport Assay
(§3) Human-derived colorectal adenocarcinoma cell line Caco-2 cell monolayer model was used to study the bidirectional transport of the target compounds from the apical (AP) side to the basolateral (BL) side and from BL side to AP side. HPLC was used for quantitative analysis to calculate transport parameters, apparent permeability coefficient (Papp) and the efflux ratio.
The subject of data set [16] is Caco-2 cell monolayer. Kind of data set: Caco-2 bidirectional transport, efflux ratio. To be noted: Caco-2 cell line (21 days). Background: Caco-2 monolayers are a common model of the intestinal barrier.
Source text: as §3

Read-outs that look alike come from different tables or passages of the source.

Broadly, the IC50 is the point on the concentration scale where inhibition reaches its midpoint. By Papp A→B is commonly meant how fast a substance crosses the layer from the apical side. In general, efflux ratio refers to a quotient of directional permeabilities that is used to spot active efflux.

Take `CO[C@H]1C[C@H]2OC[C@@]2(OC(C)=O)[C@H]2[C@H](OC(=O)c3ccccc3)[C@]34OC(=O)O[C@H]3[C@H](OC(=O)[C@H](O)[C@@H](NC(=O)OC(C)(C)C)c3ccccc3)C(C)=C([C@@H](OC(=O)N(C)C)C(=O)[C@]12C)C4(C)C` [PCMI-08]: the inhibition at 1 µM stood at 97.3% in data set [1]; 81.3% in data set [2]; 85.2% in [3]; 92.8% in data set [4]; 81.7% in [5]; 96.8% in [6]. In addition, the inhibition at 1 µM was found to be 86.7% in data set [7]; 65.7% in data set [8]; 87.7% in data set [9]; 80.8% in data set [10]; 68.1% in data set [11]; 70.6% in [12]. For the same compound, the inhibition at 1 µM in data set [13] was 90.8%. In [14], the IC50 stood at 7.93 ± 0.14 nM. Besides, the apparent permeability from apical to basolateral (Papp A→B) in data set [15] (Mean, read-out: Papp A-B, Mean) was over 10 ×10⁻⁶ cm/s; in data set [15] (Sample-01, read-out: Papp A-B, Sample-01), 19.5 ×10⁻⁶ cm/s; in data set [15] (Sample-02, read-out: Papp A-B, Sample-02) it was 17.3 ×10⁻⁶ cm/s. The recovery in [15] (Mean, read-out: Recovery rate in mass, Mean) stood at 99.4%; in [15] (Sample-01, read-out: Recovery rate in mass, Sample-01) it was 102%; in data set [15] (Sample-02, read-out: Recovery rate in mass, Sample-02), 97%. Besides, the “Papp A-B” value in data set [16] (A-B) is 16.40 10^−6 cm/s. Further, the “Papp B-A” value in data set [16] (B-A) is 33.48 10^−6 cm/s. Further, the efflux ratio in data set [16] (Papp B-A/Papp A-B) is on record as 2.04.
